Laboratory results: patent US20100184653A1, “Derivates of Polyethylene Glycol Modified Thymosin Alpha 1” (Jiangsu Hansen Pharmaceutical Co., Ltd., priority 2008, published 2010)
Residues, ends and D or L forms follow the SMILES beside them. No end group written: not given here.

What was measured:
[1] = in body; cited from earlier work
[2] = Pharmacokinetic test, half life after hypodermic injection; settings: in vivo, subcutaneous
[3] = tested on: T-lymphocytes (mice's spleen cells); test: ConA-induced IFN-γ production by mouse spleen T lymphocytes, ELISA of culture supernatant; type: cell-based, ICR mice; parameters: Mean (IFN-γ, ConA-induced cytokine production): unit not given here; settings: for Mean (IFN-γ, ConA-induced cytokine production): 24 hours
Method: (§1) With Zadaxin as a positive control, the effect of the samples on T-lymphocytes producing cytokines were tested to confirm if the samples could adjust T-lymphocyte immune activity and the extent thereof.
(§2) In the lymphocytes cultured in vitro, T cell can be activated by the stimulation of mitosis Concanavalin A and brings change of cells' behavior such as cytokine synthesis, cytokine receptor expression, cell differentiation and cell proliferation. The generation of cytokine and proliferation of the cell are response of the immune cell function and cell activation. Detection means is reliable, simple, and with good repeatability, therefore, evaluating the samples' effect to the function of T lymphocytes by detecting cytokine generation and cell proliferation has been widely applied.
(§3) Preparation of spleen cell suspension: mice's spleen was obtained under aseptic condition, which was ground with frosted glass. The spleen cell suspension was thus obtained. After red blood lysis, the spleen cell suspension was washed three times, counted (live cells being more than 95%). The concentration of spleen cell was adjusted to 5×10^6 cells/ml with 10% FBS (bovine serum) RPMI1640 culture fluid.
(§4) The concentration of mice's Spleen cells was adjusted to 5×10^6 cells/ml, and then distributed it into 24 wells plate with 1 ml/well; samples with various concentrations were added into the plate respectively with 0.5 ml/well; and then ConA (20 ug/ml) was added with 0.5 ml/well. The samples were kept at 37° C. in CO2 incubator for 24 hours, centrifuged and collected culture supernatant.
(§5) Antibody Coating: The antibody was diluted with coating buffer and then was added into 96 well ELISA plates with 50 μL each wells. The plate was left overnight at […].
(§6) Blocking: The antibody coating buffer was removed, and the plate was washed 3 times with washing solution (PBS/Tween solution). 100 μL of blocking buffer (PBS/10% FBS) was added to each wells of the plates. The plate was incubated at room temperature for 1 hour.
(§7) Standards and samples: The blocking buffer was removed from the plates, which was washed 3 times with washing solution (PBS/Tween solution) and followed by adding standards and samples with 50 μL each wells. The plate was incubated at room temperature for 2 hours.
(§8) Detection of Antibody and Enzyme: The standards and samples were removed from the plates. The plate was washed 3 times with washing solution (PBS/Tween solution). The diluted detective antibody and enzyme HRP were added into the plate with 50 μL each wells. The plate was incubated at room temperature for 1 hour.
(§9) Substrate Staining: The diluted detection antibody and enzyme HRP were removed from the plate which was then washed 3 times with washing solution (PBS/Tween solution). The substrate resolved in citricic acid/hydrogen peroxide (TMB) was added into the plate with 50 μL each wells. The plate was incubated at room temperature away from the light for 30 minutes. After being stained, stop solution 2N H2SO4 was added into the plate with 25 μL per well.
(§10) OD Detection: The plate was placed into enzyme-labeled instrument and read OD values at 450 nm (calibrated value of 570 nm).

[4] = tested on: T-lymphocytes (mice's spleen cells); test: ConA-induced IL-2 production by mouse spleen T lymphocytes, ELISA of culture supernatant; type: cell-based, ICR mice; parameters: unit not given here; settings: 24 hours
Method: as §1, §2, §3, §4, §5, §6, §7, §8, §9, §10

| half-life [2] [h] | Compound | T1/2 [1] [h] | stimulation of the production of IFN-r by T cells ([3]; compared with Zadaxin, several experimental concentration) | Mean (IFN-γ, ConA-induced cytokine production) ([3]; sample 0.001 ug/ml) | Mean (IFN-γ, ConA-induced cytokine production) ([3]; sample 0.01 ug/ml) | Mean (IFN-γ, ConA-induced cytokine production) ([3]; sample 0.1 ug/ml) | Mean (IFN-γ, ConA-induced cytokine production) ([3]; sample 1 ug/ml) | Mean (IFN-γ, ConA-induced cytokine production) ([3]; sample 10 ug/ml) | Mean (IFN-γ, ConA-induced cytokine production) ([3]; sample 100 ug/ml) | Mean (IL-2, ConA-induced cytokine production) ([4]; sample 0.001 ug/ml) | Mean (IL-2, ConA-induced cytokine production) ([4]; sample 0.01 ug/ml) | Mean (IL-2, ConA-induced cytokine production) ([4]; sample 0.1 ug/ml) | Mean (IL-2, ConA-induced cytokine production) ([4]; sample 1 ug/ml) | Mean (IL-2, ConA-induced cytokine production) ([4]; sample 10 ug/ml) | Mean (IL-2, ConA-induced cytokine production) ([4]; sample 100 ug/ml) | activity of promoting the production of IFN-r by T cells ([3]; all experimental concentrations) | promoting the production of IFN-r by T cells ([3]; compared with PEG-TA1) |
| --- | --- | --- | --- | --- | --- | --- | --- | --- | --- | --- | --- | --- | --- | --- | --- | --- | --- |
| ~2 | CC[C@H](C)[C@H](NC(=O)[C@H](CCC(=O)O)NC(=O)[C@H](CO)NC(=O)[C@H](CO)NC(=O)[C@@H](NC(=O)[C@H](CC(=O)O)NC(=O)[C@@H](NC(=O)[C@H](C)NC(=O)[C@H](C)NC(=O)[C@H](CC(=O)O)NC(=O)[C@H](CO)NC(C)=O)C(C)C)[C@@H](C)O)C(=O)N[C@H](C(=O)N[C@H](C(=O)N[C@@H](CCCCN)C(=O)N[C@@H](CC(=O)O)C(=O)N[C@@H](CC(C)C)C(=O)N[C@@H](CCCCN)C(=O)N[C@@H](CCC(=O)O)C(=O)N[C@@H](CCCCN)C(=O)N[C@@H](CCCCN)C(=O)N[C@@H](CCC(=O)O)C(=O)N[C@H](C(=O)N[C@H](C(=O)N[C@@H](CCC(=O)O)C(=O)N[C@@H](CCC(=O)O)C(=O)N[C@@H](C)C(=O)N[C@@H](CCC(=O)O)C(=O)N[C@@H](CC(N)=O)C(=O)O)C(C)C)C(C)C)[C@@H](C)O)[C@@H](C)O [Zadaxin, thymosin alpha 1] (Ac-SDAAVDTSSEITTKDLKEKKEVVEEAEN-OH) | 2 | – | – | – | – | – | – | – | – | – | – | – | – | – | – | – |
| – | PEG-TA1: thymosin alpha 1 modified with PEG (derivative when n was 0); b135 calls it modified at the N-terminal (SDAAVDTSSEITTKDLKEKKEVVEEAEN; not fully specified (N-terminus); ends and bridges not checked; also: PEG attached, site unclear; UniProt P06454 2-29, looked up) | – | more effective | 4809 | 4603 | 4141 | 4949 | 3874 | 5467 | 3505 | 3438 | 3339 | 3214 | 3348 | 3582 | – | – |
| – | Ac-Ser-Asp-Ala-Ala-Val-Asp-Thr-Ser-Ser-Glu-Ile-Thr-Thr-Lys-Asp-Leu-Lys-Glu-Lys-Lys-Glu-Val-Val-Glu-Glu-Ala-Glu-Asn-Gly-Gly-Cys-PEG40K (Ac-SDAAVDTSSEITTKDLKEKKEVVEEAENGG-{C(branched 40K mPEG-maleimide)}) [T-GG-C-mPEG, thymosin alpha 1 peptide derivative modified with PEG; PEG40K: branched-chain (mPEG)2-MAL] | – | – | 4703 | 4891 | 4654 | 4990 | 5102 | 5577 | 3409 | 3610 | 3530 | 3397 | 3618 | 3692 | showed activity | more effective than the thymosin alpha 1 modified with PEG at the N-terminal |
